In PubChem BioAssay AID248 (DTP/NCI, 2004):
Where “and” joins values, the source holds several entries; their conditions need not be identical. Equal entries are not always repeated. Toxic doses and inconclusive results are not listed.

Test system: L1210 leukemia ip in BDF1 mice, survival T/C
Assay: NCI In Vivo Anticancer Drug Screen. Data for tumor model L1210 Leukemia (intraperitoneal) in B6D2F1 (BDF1) mice
Conditions: endpoint: mean survival time, higher = longer survival
How it was run: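 In this screen, tumor-bearing mice given compound are compared to those given vehicle, and their survival values are reported as a treated-to-control quotient.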

[1] = dose: 100.0 mg/kg/injection, schedule: Q04DX003 (ip), vehicle: Klucel (hydroxypropylcellulose) (HPC)
[2] = dose: 200.0 mg/kg/injection, schedule: Q04DX003 (ip), vehicle: Klucel (hydroxypropylcellulose) (HPC)
[3] = dose: 400.0 mg/kg/injection, schedule: Q04DX003 (ip), vehicle: Klucel (hydroxypropylcellulose) (HPC)
[4] = dose: 100.0 mg/kg/injection, schedule: Q01DX001 (ip), vehicle: saline
[5] = dose: 200.0 mg/kg/injection, schedule: Q01DX001 (ip), vehicle: saline
[6] = dose: 400.0 mg/kg/injection, schedule: Q01DX001 (ip), vehicle: saline
[7] = dose: 50.0 mg/kg/injection, schedule: Q01DX009 (ip), vehicle: saline with Tween-80
[8] = dose: 100.0 mg/kg/injection, schedule: Q01DX009 (ip), vehicle: saline with Tween-80
[9] = dose: 100.0 mg/kg/injection, schedule: Q04DX003 (ip), vehicle: acetone
[10] = dose: 12.5 mg/kg/injection, schedule: Q01DX009 (ip), vehicle: saline
[11] = dose: 25.0 mg/kg/injection, schedule: Q01DX009 (ip), vehicle: saline
[12] = dose: 50.0 mg/kg/injection, schedule: Q01DX009 (ip), vehicle: saline
[13] = dose: 200.0 mg/kg/injection, schedule: Q01DX009 (ip), vehicle: saline with Tween-80
[14] = dose: 100.0 mg/kg/injection, schedule: Q04DX003 (ip), vehicle: saline
[15] = dose: 200.0 mg/kg/injection, schedule: Q04DX003 (ip), vehicle: saline
[16] = dose: 400.0 mg/kg/injection, schedule: Q04DX003 (ip), vehicle: saline
[17] = dose: 25.0 mg/kg/injection, schedule: Q04DX002 (ip), vehicle: saline
[18] = dose: 50.0 mg/kg/injection, schedule: Q04DX002 (ip), vehicle: saline

With O=C1c2cc(Cl)cc(Cl)c2-c2c(NC(=O)C(Cl)Cl)cc(Cl)cc21 the T/C (dose: 100.0 mg/kg/injection, schedule: Q01DX009 (ip), vehicle: Klucel (hydroxypropylcellulose) (HPC)) was 91 % of control, the T/C [1] was 95 % of control and the T/C [2] was 98 % of control. For the same compound, the T/C [3] was 93 % of control.
With CCOC(=O)C(C#N)=C1CCN(Cc2ccccc2)CC1 the T/C [4] was 96 % of control, the T/C [5] was 99 % of control and the T/C [6] was 105 % of control.
NCCCC(N)C(=O)O (stereo unspecified) was tested, and the T/C [4] was 98 % of control, the T/C [5] was 102 % of control and the T/C [6] was 106 % of control.
For COc1ccc(CC(=O)NCCc2ccccc2)cc1OC, the T/C (dose: 12.5 mg/kg/injection, schedule: Q01DX009 (ip), vehicle: saline with Tween-80) was 92 % of control, the T/C (dose: 25.0 mg/kg/injection, schedule: Q01DX009 (ip), vehicle: saline with Tween-80) was 92 % of control and the T/C [7] was 103 % of control and 92 % of control. The T/C [8] was 105 % of control.
C[C@]12C[C@H](O)[C@H]3[C@@H](CCC4=CC(=O)CC[C@@]43C)[C@@H]1CC[C@@H]2C(=O)CO was tested, and the T/C (dose: 25.0 mg/kg/injection, schedule: Q01DX009 (sc), vehicle: steriod suspending solution) was 101 % of control, the T/C (dose: 25.0 mg/kg/injection, schedule: Q01DX010 (sc), vehicle: steriod suspending solution) was 102 % of control and the T/C (dose: 50.0 mg/kg/injection, schedule: Q01DX009 (sc), vehicle: steriod suspending solution) was 95 % of control and 103 % of control. The T/C (dose: 50.0 mg/kg/injection, schedule: Q01DX010 (sc), vehicle: steriod suspending solution) was 104 % of control, the T/C (dose: 100.0 mg/kg/injection, schedule: Q01DX009 (sc), vehicle: steriod suspending solution) was 94 % of control and 107 % of control and the T/C (dose: 100.0 mg/kg/injection, schedule: Q01DX010 (sc), vehicle: steriod suspending solution) was 102 % of control. For the same compound, the T/C (dose: 200.0 mg/kg/injection, schedule: Q01DX009 (sc), vehicle: steriod suspending solution) was 105 % of control and 113 % of control and the T/C (dose: 200.0 mg/kg/injection, schedule: Q01DX010 (sc), vehicle: steriod suspending solution) was 102 % of control.
For C#CCOCCC(=O)O, the T/C [9] was 106 % of control.
With O=C1C=C2CCCCC2C1 (stereo unspecified) the T/C [7] was 100 % of control and the T/C [8] was 88 % of control.
With NC(N)=Nc1nc2ccccc2s1 the T/C [10] was 94 % of control, the T/C [11] was 100 % of control and the T/C (dose: 25.0 mg/kg/injection, schedule: Q04DX003 (ip), vehicle: Klucel (hydroxypropylcellulose) (HPC)) was 103 % of control. For the same compound, the T/C [12] was 96 % of control and the T/C (dose: 50.0 mg/kg/injection, schedule: Q04DX003 (ip), vehicle: Klucel (hydroxypropylcellulose) (HPC)) was 100 % of control.
In the case of c1ccc(Sc2cccc3ccccc23)cc1, the T/C [8] is reported as 109 % of control, the T/C [13] is reported as 103 % of control and the T/C (dose: 400.0 mg/kg/injection, schedule: Q01DX009 (ip), vehicle: saline with Tween-80) is reported as 103 % of control.
For O=C(OC(c1ccccc1)c1ccccc1)c1ccc([N+](=O)[O-])cc1, the T/C (dose: 100.0 mg/kg/injection, schedule: Q01DX001 (ip), vehicle: carboxymethylcellulose (CMC)) was 98 % of control, the T/C (dose: 200.0 mg/kg/injection, schedule: Q01DX001 (ip), vehicle: carboxymethylcellulose (CMC)) was 104 % of control and the T/C (dose: 400.0 mg/kg/injection, schedule: Q01DX001 (ip), vehicle: carboxymethylcellulose (CMC)) was 96 % of control.
In the case of CCCSP(C(C)C)C(C)C, the T/C (dose: 12.5 mg/kg/injection, schedule: Q04DX003 (ip), vehicle: saline with Tween-80) is reported as 94 % of control, the T/C (dose: 25.0 mg/kg/injection, schedule: Q04DX003 (ip), vehicle: saline with Tween-80) is reported as 94 % of control and the T/C (dose: 50.0 mg/kg/injection, schedule: Q04DX003 (ip), vehicle: saline with Tween-80) is reported as 91 % of control.
O=S(NOCc1ccccc1)c1ccccc1 (stereo unspecified) was tested, and the T/C (dose: 100.0 mg/kg/injection, schedule: Q04DX002 (ip), vehicle: Klucel (hydroxypropylcellulose) (HPC)) was 107 % of control, the T/C (dose: 200.0 mg/kg/injection, schedule: Q04DX002 (ip), vehicle: Klucel (hydroxypropylcellulose) (HPC)) was 107 % of control and the T/C (dose: 400.0 mg/kg/injection, schedule: Q04DX002 (ip), vehicle: Klucel (hydroxypropylcellulose) (HPC)) was 111 % of control.
In the case of c1ccc(-n2ncnn2)cc1, the T/C [4] is reported as 98 % of control, the T/C [5] is reported as 95 % of control and the T/C [6] is reported as 90 % of control.
N#C/C=C/C1=CCCCC1 was tested, and the T/C [14] was 101 % of control, the T/C [15] was 97 % of control and the T/C [16] was 93 % of control.
In the case of CCCCCCCCCCCCN1CC1, the T/C (dose: 10.0 mg/kg/injection, schedule: Q01DX009 (ip), vehicle: Klucel (hydroxypropylcellulose) (HPC)) is reported as 108 % of control and the T/C (dose: 20.0 mg/kg/injection, schedule: Q01DX009 (ip), vehicle: Klucel (hydroxypropylcellulose) (HPC)) is reported as 109 % of control.
With CCOC(=O)CN1C(C)C1C(C)C (stereo unspecified) the T/C [1] was 114 % of control, the T/C [2] was 100 % of control and the T/C [3] was 104 % of control.
For Clc1ccccc1C=C1c2ccccc2-c2ccccc21, the T/C [1] was 103 % of control, the T/C [2] was 100 % of control and the T/C [3] was 96 % of control.
CC(C)=NNC(N)=O was tested, and the T/C [10] was 97 % of control, the T/C [11] was 100 % of control and the T/C [17] was 98 % of control. The T/C [12] was 94 % of control and the T/C [18] was 103 % of control.
In the case of NC(=O)c1ccc[n+](CCc2nc(N)c3[nH]cnc3n2)c1, the T/C (dose: 50.0 mg/kg/injection, schedule: Q04DX003 (ip), vehicle: saline) is reported as 97 % of control, the T/C [14] is reported as 97 % of control and the T/C [15] is reported as 103 % of control.
For CCN(CC)CC(=O)NCC(CCCN(C)C)(CCCN(C)C)c1cccc2ccccc12, the T/C [10] was 96 % of control, the T/C [11] was 91 % of control and the T/C [17] was 93 % of control. For the same compound, the T/C [12] was 86 % of control and the T/C [18] was 100 % of control.
CCOC(=O)/C(O)=C\c1nnc(Cl)cc1Cl was tested, and the T/C (dose: 75.0 mg/kg/injection, schedule: Q04DX002 (ip), vehicle: Klucel (hydroxypropylcellulose) (HPC)) was 93 % of control, the T/C (dose: 150.0 mg/kg/injection, schedule: Q04DX002 (ip), vehicle: Klucel (hydroxypropylcellulose) (HPC)) was 96 % of control and the T/C (dose: 300.0 mg/kg/injection, schedule: Q04DX002 (ip), vehicle: Klucel (hydroxypropylcellulose) (HPC)) was 116 % of control.
For CC(C)c1cc[n+]([O-])cc1, the T/C [7] was 94 % of control, the T/C [8] was 94 % of control and the T/C [13] was 91 % of control.
With CC(N)C(=O)NC(Cc1ccccc1)C(=O)O (stereo unspecified) the T/C (dose: 100.0 mg/kg/injection, schedule: Q01DX001 (ip), vehicle: acetone) was 101 % of control, the T/C (dose: 200.0 mg/kg/injection, schedule: Q01DX001 (ip), vehicle: acetone) was 97 % of control and the T/C (dose: 400.0 mg/kg/injection, schedule: Q01DX001 (ip), vehicle: acetone) was 101 % of control.
O=C(NCCCCCCNC(=O)Nc1ccc(C2=NCCCN2)cc1)Nc1ccc(C2=NCCCN2)cc1 was tested, and the T/C (dose: 6.25 mg/kg/injection, schedule: Q01DX Z (ip), vehicle: carboxymethylcellulose (CMC)) was 97 % of control, the T/C (dose: 12.5 mg/kg/injection, schedule: Q01DX Z (ip), vehicle: carboxymethylcellulose (CMC)) was 97 % of control and the T/C (dose: 25.0 mg/kg/injection, schedule: Q01DX Z (ip), vehicle: carboxymethylcellulose (CMC)) was 100 % of control.
In the case of CC(=O)N(CC#CCN(C(C)=O)c1ccccc1)c1ccccc1, the T/C (dose: 100.0 mg/kg/injection, schedule: Q04DX002 (ip), vehicle: other) is reported as 111 % of control, the T/C (dose: 200.0 mg/kg/injection, schedule: Q04DX002 (ip), vehicle: other) is reported as 105 % of control and the T/C (dose: 400.0 mg/kg/injection, schedule: Q04DX002 (ip), vehicle: other) is reported as 97 % of control.
For COc1cccc(NC(=O)N(CCCl)N=O)c1, the T/C (dose: 4.5 mg/kg/injection, schedule: Q01DX001 (ip), vehicle: carboxymethylcellulose (CMC)) was 122 % of control, the T/C (dose: 18.0 mg/kg/injection, schedule: Q01DX001 (ip), vehicle: carboxymethylcellulose (CMC)) was 159 % of control and the T/C (dose: 26.0 mg/kg/injection, schedule: Q01DX001 (ip), vehicle: carboxymethylcellulose (CMC)) was 151 % of control. The T/C (dose: 40.0 mg/kg/injection, schedule: Q01DX001 (ip), vehicle: carboxymethylcellulose (CMC)) was 188 % of control, the T/C (dose: 60.0 mg/kg/injection, schedule: Q01DX001 (ip), vehicle: carboxymethylcellulose (CMC)) was 87 % of control and the T/C (dose: 93.0 mg/kg/injection, schedule: Q01DX001 (ip), vehicle: carboxymethylcellulose (CMC)) was 87 % of control.
In the case of O=C1CC2CC1C1CC(Br)C(Br)C21 (stereo unspecified), the T/C [9] is reported as 97 % of control, the T/C (dose: 200.0 mg/kg/injection, schedule: Q04DX003 (ip), vehicle: acetone) is reported as 97 % of control and the T/C (dose: 400.0 mg/kg/injection, schedule: Q04DX003 (ip), vehicle: acetone) is reported as 92 % of control.
OC(c1ccccc1)c1ccccn1 (stereo unspecified) was tested, and the T/C [14] was 92 % of control, the T/C [15] was 115 % of control and the T/C [16] was 101 % of control.
